Experimental data: ChEMBL document CHEMBL1201862, “PubChem BioAssay data set” (2004)
Activity calls are given as the source filed them.

How the values were obtained:
[1] = target: T1, Aryl hydrocarbon receptor (Homo sapiens, UniProt P35869); assay: Luminescence-based cell-based high throughput dose response assay for activators of the Aryl Hydrocarbon Receptor (AHR). [Related pubchem assays: 2796 (Primary screen (AHR activators in singlicate)), 2845 (Confirmation screen (AHR activators in triplicate)), 434939 (Counterscreen (PXR activators in triplicate)), 2804 (Summary (AHR activators))]; format: ADME
T1 sequence (P35869 whole entry): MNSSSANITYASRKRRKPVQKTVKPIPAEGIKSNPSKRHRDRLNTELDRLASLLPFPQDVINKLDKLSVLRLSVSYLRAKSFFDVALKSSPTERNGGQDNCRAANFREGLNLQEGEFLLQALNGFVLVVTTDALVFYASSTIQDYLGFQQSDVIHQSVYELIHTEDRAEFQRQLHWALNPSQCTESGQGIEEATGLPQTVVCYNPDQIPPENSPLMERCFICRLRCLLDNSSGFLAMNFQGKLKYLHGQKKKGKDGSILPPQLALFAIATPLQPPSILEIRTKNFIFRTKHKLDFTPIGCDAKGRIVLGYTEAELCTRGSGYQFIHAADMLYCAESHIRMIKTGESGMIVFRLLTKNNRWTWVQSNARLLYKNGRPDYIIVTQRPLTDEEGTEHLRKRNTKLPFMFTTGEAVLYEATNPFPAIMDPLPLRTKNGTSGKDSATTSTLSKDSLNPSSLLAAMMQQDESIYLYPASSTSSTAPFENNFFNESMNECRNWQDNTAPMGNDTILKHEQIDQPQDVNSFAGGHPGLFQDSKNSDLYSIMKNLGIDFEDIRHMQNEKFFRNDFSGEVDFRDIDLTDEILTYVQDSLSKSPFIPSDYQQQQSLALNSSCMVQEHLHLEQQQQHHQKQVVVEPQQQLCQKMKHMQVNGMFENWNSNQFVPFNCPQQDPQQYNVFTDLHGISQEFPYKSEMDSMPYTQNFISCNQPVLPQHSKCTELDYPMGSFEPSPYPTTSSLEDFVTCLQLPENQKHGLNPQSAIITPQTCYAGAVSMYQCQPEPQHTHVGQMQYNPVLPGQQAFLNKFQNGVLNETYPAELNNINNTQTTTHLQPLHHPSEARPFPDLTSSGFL

Fibrinogen beta chain [2] = target: T2, Fibrinogen beta chain (Homo sapiens, UniProt P02675); assay: Fluorescence polarization-based biochemical high throughput dose response assay to identify inhibitors that disrupt the binding of a cyclic peptide (Tn6) to the fibrin proteolytic product D-Dimer and fragment E complex [DD(E )].
T2 sequence (P02675 whole entry, the tested form may be a part): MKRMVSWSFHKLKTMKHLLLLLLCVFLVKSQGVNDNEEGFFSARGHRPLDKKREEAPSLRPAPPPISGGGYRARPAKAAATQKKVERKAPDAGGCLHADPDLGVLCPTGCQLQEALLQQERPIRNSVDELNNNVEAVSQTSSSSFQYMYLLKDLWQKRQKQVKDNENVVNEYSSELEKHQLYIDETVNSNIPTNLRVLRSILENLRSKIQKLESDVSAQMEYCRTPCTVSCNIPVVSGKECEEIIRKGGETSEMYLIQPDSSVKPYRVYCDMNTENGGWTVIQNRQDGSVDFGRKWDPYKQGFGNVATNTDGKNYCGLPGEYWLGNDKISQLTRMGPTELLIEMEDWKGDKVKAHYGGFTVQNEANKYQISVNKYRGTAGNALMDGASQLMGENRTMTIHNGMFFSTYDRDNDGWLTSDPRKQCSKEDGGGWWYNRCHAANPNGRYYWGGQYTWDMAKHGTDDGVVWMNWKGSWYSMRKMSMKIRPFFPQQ

Fibrinogen beta chain [3] = target: T2, Fibrinogen beta chain; assay: Fluorescence polarization-based biochemical high throughput dose response assay to identify inhibitors that disrupt the binding of a cyclic peptide (Tn7) to the fibrin proteolytic product D-Dimer and fragment E complex [DD(E )].
Phospholipase D2 = Phospholipase D2 (Homo sapiens, UniProt O14939); assay: PLD2 Cellular Concentration Response Study.; format: functional
Phospholipase D1 = Phospholipase D1 (Homo sapiens, UniProt Q13393); assay: PLD1 Cellular Concentration Response Study.; format: functional
Sequence of Phospholipase D1 (Q13393 whole entry): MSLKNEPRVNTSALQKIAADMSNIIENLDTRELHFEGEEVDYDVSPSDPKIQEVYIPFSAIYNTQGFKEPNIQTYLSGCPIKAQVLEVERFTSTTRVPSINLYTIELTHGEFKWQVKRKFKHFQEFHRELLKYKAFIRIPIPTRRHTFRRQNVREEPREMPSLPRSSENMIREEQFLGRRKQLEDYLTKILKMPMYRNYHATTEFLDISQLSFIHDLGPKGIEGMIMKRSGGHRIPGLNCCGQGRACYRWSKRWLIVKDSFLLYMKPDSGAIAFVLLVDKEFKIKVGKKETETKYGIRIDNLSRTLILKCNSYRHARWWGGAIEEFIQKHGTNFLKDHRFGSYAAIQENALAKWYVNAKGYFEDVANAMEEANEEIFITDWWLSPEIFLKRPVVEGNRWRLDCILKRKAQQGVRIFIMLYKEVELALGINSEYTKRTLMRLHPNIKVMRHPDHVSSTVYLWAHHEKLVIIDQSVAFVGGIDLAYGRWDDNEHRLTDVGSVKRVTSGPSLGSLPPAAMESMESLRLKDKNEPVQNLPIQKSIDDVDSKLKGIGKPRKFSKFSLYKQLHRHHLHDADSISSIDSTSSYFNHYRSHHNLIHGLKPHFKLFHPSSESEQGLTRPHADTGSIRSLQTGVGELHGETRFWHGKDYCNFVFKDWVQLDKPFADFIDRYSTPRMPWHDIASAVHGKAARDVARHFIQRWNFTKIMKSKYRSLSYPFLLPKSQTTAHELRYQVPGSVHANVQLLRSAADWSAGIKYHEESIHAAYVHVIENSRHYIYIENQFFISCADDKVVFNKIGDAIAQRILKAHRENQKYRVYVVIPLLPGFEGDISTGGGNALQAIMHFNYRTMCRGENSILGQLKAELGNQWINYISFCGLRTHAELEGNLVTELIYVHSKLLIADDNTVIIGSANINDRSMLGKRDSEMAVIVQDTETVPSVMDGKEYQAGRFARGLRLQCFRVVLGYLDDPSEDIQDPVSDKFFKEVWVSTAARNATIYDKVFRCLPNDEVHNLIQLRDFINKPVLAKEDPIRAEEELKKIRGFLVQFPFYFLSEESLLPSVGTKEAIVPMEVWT

Transthyretin = Transthyretin (Homo sapiens, UniProt P02766); assay: Luminescence-based cell-based high throughput dose response assay to identify activators of Transthyretin (TTR) transcription.; format: functional
[4] = target: Ubiquitin carboxyl-terminal hydrolase BAP1 (Homo sapiens, UniProt Q92560); assay: BAP1 deubiquitinase inhibitors, dose response, biochemical (AID 714); format: functional
Sequence of Ubiquitin carboxyl-terminal hydrolase BAP1 (Q92560 whole entry): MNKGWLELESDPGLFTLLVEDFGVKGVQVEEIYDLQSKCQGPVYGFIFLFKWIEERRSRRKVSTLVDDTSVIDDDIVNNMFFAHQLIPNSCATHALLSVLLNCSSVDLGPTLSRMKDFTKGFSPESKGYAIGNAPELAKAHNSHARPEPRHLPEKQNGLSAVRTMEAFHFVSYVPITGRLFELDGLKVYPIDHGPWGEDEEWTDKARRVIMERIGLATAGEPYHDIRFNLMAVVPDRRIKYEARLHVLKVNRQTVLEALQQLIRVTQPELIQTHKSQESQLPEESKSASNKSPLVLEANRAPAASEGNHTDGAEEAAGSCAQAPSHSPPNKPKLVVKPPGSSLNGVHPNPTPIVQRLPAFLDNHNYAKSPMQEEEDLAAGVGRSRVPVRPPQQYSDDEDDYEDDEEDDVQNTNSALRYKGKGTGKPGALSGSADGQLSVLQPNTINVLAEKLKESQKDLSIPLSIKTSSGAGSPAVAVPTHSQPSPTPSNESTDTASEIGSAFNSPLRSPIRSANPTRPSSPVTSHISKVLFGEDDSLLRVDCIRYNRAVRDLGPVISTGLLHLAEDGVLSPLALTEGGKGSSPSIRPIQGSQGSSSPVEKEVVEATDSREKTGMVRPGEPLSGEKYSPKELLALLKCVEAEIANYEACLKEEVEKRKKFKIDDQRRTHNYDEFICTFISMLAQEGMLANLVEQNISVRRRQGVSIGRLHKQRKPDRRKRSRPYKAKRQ

[5] = HEp-2 cell cytotoxicity, dose response, cytotoxicity control for RSV inhibitor project, HTS (AID 2410); format: functional; conditions: human respiratory syncytial virus
[6] = M. tuberculosis growth inhibition, HTS (AID 449762); format: functional
[7] = microbe, parasite or virus in culture; format: functional; conditions: Mycobacterium tuberculosis
Ephrin type-A receptor 4 = Ephrin type-A receptor 4 (Mus musculus, UniProt Q03137); assay: inhibitors of EphA4 binding to KYL peptide, primary screen, biochemical, colorimetric, mouse EphA4 (AID 689); format: functional
Sequence of Ephrin type-A receptor 4 (Q03137 whole entry): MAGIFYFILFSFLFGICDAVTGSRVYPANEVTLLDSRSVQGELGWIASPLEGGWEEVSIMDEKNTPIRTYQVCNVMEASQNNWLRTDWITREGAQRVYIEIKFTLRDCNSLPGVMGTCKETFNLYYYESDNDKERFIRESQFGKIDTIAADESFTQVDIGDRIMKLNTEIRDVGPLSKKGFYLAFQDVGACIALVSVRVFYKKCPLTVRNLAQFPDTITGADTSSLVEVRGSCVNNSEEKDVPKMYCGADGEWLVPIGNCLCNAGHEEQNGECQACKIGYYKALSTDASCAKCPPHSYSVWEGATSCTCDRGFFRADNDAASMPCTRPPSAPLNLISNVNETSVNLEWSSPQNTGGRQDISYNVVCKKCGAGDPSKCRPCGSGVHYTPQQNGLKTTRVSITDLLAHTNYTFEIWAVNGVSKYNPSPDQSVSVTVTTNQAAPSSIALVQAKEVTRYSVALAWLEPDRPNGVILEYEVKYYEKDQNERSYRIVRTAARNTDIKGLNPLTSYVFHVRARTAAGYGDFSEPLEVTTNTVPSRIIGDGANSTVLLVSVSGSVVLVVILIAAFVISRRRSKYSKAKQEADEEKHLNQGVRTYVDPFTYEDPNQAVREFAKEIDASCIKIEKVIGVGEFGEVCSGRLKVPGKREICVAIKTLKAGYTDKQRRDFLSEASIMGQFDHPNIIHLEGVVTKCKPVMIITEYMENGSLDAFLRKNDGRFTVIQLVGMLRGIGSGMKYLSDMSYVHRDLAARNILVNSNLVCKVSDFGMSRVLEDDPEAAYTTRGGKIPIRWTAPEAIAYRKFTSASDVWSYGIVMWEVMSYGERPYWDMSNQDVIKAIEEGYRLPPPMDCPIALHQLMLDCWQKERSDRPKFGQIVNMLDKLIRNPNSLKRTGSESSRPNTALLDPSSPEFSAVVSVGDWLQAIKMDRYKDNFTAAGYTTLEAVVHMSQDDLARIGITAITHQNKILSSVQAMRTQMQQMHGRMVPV

[8] = target: T3, Tyrosine-protein phosphatase non-receptor type 11 (Homo sapiens, UniProt Q06124); assay: SHP2 phosphatase inhibition, dose response, selectivity assay for STEP inhibitor project, biochemical (AID 602367); format: functional; conditions: read-out: IC50_Mean
T3 sequence (Q06124 whole entry): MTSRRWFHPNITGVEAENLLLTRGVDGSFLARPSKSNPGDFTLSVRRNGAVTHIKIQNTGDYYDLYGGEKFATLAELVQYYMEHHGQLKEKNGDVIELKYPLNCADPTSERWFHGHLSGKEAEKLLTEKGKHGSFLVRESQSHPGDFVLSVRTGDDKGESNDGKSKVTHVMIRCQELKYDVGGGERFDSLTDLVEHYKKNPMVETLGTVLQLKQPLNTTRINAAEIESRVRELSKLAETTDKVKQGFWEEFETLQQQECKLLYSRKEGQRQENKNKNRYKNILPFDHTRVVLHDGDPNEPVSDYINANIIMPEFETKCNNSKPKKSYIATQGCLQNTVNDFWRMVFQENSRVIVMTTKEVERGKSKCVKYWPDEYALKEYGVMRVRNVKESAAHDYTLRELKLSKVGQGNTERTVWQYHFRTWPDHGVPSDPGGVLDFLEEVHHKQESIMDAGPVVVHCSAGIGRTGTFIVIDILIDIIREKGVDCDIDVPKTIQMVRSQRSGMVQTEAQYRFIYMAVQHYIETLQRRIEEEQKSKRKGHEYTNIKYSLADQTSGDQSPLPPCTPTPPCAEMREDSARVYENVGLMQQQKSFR

[9] = target: T4, Tyrosine-protein phosphatase non-receptor type 5 (Homo sapiens, UniProt P54829); assay: STEP phosphatase inhibitors, confirmation, biochemical, fluorescence intensity, uHTS hits (AID 602372); format: functional; conditions: read-out: IC50_Mean
T4 sequence (P54829 whole entry): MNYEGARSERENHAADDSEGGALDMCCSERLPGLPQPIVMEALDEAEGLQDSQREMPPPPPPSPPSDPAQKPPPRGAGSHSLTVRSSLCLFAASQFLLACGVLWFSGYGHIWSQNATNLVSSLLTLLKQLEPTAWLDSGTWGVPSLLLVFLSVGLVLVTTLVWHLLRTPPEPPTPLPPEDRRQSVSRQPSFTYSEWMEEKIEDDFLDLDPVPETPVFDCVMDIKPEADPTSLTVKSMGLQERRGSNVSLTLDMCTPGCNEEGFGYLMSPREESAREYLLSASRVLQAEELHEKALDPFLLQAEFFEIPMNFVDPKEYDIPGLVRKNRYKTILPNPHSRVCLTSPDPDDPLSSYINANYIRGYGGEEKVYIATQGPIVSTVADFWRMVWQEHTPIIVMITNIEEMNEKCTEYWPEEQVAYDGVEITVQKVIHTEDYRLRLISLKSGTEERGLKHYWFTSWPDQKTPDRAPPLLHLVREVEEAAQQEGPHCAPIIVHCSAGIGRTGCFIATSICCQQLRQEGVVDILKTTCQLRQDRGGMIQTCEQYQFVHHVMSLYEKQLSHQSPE

[10] = target: Dual specificity protein phosphatase 3 (Homo sapiens, UniProt P51452); assay: VHR phosphatase inhibition, dose response, selectivity assay for STEP inhibitor project, biochemical (AID 602374); format: functional; conditions: read-out: IC50_Mean
Sequence of Dual specificity protein phosphatase 3 (P51452 whole entry): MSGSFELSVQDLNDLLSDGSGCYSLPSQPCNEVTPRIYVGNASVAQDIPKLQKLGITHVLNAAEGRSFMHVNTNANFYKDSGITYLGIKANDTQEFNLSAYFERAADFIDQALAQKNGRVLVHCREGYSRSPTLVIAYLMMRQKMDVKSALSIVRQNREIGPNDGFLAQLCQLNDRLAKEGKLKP

[11] = target: Tyrosine-protein phosphatase non-receptor type 22 (Homo sapiens, UniProt Q9Y2R2); assay: PTPN22 phosphatase inhibition, dose response, selectivity assay for STEP inhibitor project, biochemical (AID 624241); format: functional
Sequence of Tyrosine-protein phosphatase non-receptor type 22 (Q9Y2R2 whole entry): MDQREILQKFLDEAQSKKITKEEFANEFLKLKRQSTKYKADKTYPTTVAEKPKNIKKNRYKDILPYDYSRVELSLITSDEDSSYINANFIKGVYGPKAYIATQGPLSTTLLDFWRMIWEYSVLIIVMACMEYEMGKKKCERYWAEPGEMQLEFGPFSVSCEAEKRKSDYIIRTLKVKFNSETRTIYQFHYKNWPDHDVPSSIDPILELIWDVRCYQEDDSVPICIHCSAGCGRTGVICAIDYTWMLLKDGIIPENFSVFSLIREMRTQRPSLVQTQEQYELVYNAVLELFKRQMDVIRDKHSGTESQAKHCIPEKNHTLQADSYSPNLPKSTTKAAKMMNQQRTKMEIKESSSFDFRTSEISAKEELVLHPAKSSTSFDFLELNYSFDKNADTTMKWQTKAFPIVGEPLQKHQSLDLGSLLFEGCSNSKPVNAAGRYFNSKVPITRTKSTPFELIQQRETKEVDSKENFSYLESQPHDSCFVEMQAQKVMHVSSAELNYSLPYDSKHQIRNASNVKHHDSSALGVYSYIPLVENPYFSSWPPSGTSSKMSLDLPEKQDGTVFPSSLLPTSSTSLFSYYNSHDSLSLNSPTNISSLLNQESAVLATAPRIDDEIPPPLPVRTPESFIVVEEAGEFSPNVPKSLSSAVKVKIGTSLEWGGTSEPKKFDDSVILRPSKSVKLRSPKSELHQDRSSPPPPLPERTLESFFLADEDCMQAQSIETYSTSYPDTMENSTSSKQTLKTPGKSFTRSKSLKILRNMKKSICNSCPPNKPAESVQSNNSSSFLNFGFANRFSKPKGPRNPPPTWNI

[12] = THP-1 cell cytotoxicity, dose response, cytotoxicity control for Vif-APOBEC3G degradation inhibitor project, THP-1 cells (AID 1117359); format: functional; conditions: Human immunodeficiency virus 1, THP-1
Paired box protein Pax-8 = Paired box protein Pax-8 (Homo sapiens, UniProt Q06710); assay: inhibitors of PAX8-driven TPO luciferase reporter, dose response, RMG-I cells, cherry-pick (AID 687027); format: functional, cell-based;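 also: luciferase reporter driven by Pax8 target thyroperoxidase promoter measured by SteadyGlo luminescence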
[13] = PAX2 cell-based inhibition, dose response, selectivity assay for PAX8 inhibitor project, plate reader, dry powder samples (AID 743048); format: functional;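 also: HEK293 cells carrying a WT1 promoter luciferase reporter driven by expressed Pax2; potency is for inhibition of Pax2 driven reporter signal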
[14] = cytotoxicity in COV362 ovarian cancer cells, dose response, cytotoxicity control for PAX8 inhibitor project, cell-based, plate reader, dry powder, SA12 (AID 743144); format: functional
[15] = NIH:OVCAR-3 ovarian cancer cell cytotoxicity, dose response, PAX8 inhibitor project, plate reader, dry powder samples (AID 743044); format: functional, cell-based
[16] = PAX5 activity inhibitors, dose response, selectivity assay for PAX8 inhibitor project, cell-based, plate reader, dry powder samples (AID 743047); format: functional;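 also: HEK293 cells carrying a Pax5 driven CD19 promoter luciferase reporter; potency of inhibitors that lower reporter luminescence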
[17] = cytotoxicity in OVCAR4 cells, dose response, cytotoxicity control for PAX8 inhibitor project, cell-based, plate reader, dry powder, SA11 (AID 743150); format: functional; conditions: OVCAR-4
[18] = cytotoxicity in COV434 cells, dose response, cytotoxicity control for PAX8 inhibitor project, cell-based, plate reader, dry powder, SA7 (AID 743145); format: functional
[19] = cytotoxicity in OV-90 ovarian cancer cells, dose response, PAX8 inhibitor project, cell-based, plate reader, dry powder, SA8 (AID 743149); format: functional
[20] = cytotoxicity dependent on PAX8, dose response, cell-based, plate reader, dry powder (AID 743049); format: functional
[21] = Plasmodium falciparum Dd2 Sybr green parasite growth Measured in Cell-Based and Microorganism Combination System Using Plate Reader - 2153-01_Inhibitor_Dose_DryPowder_Activity_Set3.; format: functional
[22] = target: T5, Microphthalmia-associated transcription factor (Homo sapiens, UniProt O75030); assay: TRPM1 promoter luciferase signal decrease, dose response, MITF inhibitor project, cell-based, SK-MEL-5, cherry-picked, set 3 (AID 493073); format: functional
T5 sequence (O75030 whole entry): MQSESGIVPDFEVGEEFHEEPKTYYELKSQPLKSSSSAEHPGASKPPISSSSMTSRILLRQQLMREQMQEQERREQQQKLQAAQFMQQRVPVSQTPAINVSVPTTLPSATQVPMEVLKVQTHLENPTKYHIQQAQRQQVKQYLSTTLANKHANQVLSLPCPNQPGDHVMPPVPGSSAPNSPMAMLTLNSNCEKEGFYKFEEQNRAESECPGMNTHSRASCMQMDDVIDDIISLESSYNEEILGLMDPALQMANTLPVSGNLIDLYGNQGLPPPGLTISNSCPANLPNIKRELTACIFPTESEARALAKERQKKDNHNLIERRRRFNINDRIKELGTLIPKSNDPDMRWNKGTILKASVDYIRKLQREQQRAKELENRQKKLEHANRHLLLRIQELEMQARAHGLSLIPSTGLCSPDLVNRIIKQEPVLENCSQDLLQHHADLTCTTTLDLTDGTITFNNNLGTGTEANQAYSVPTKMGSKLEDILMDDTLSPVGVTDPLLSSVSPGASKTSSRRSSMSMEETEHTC

A-375 = assay: MITF: Counter assay: A375 proliferation Measured in Cell-Based System Using Plate Reader - 2084-03_Inhibitor_Dose_DryPowder_Activity. [Related pubchem assays (depositor defined):AID488944]; format: functional; conditions: Homo sapiens
[23] = Shn3 3'UTR reporter inhibitors, dose response, cell-based, Clone20 osteoblasts, firefly luciferase, cherry-picked (AID 624132); format: functional;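 also: firefly luciferase luminescence from reporter carrying the Shn3 3'UTR in osteoblasts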
[24] = HepG2 cell cytotoxicity, dose response, cytotoxicity control for Shn3 inhibitor project, CellTiter-Glo, cherry-picked (AID 624134); format: functional, cell-based
[25] = control 3'UTR Renilla luciferase suppression, dose response, counter-screen for Shn3 inhibitor project, cell-based, Clone20-Shn3RL, cherry-picked (AID 624133); format: functional
[26] = Vero cell cytotoxicity, dose response, cytotoxicity control for Vif-APOBEC3G degradation inhibitor project, Vero cells (AID 1117358); format: functional; conditions: Human immunodeficiency virus 1, Vero
[27] = target: Sphingosine 1-phosphate receptor 2 (Homo sapiens, UniProt O95136); assay: Dose Response Cell Based Assay for Agonists of the S1P2 Receptor. [Related pubchem assays: 729, 736, 843 ]; format: functional
Sequence of Sphingosine 1-phosphate receptor 2 (O95136 whole entry): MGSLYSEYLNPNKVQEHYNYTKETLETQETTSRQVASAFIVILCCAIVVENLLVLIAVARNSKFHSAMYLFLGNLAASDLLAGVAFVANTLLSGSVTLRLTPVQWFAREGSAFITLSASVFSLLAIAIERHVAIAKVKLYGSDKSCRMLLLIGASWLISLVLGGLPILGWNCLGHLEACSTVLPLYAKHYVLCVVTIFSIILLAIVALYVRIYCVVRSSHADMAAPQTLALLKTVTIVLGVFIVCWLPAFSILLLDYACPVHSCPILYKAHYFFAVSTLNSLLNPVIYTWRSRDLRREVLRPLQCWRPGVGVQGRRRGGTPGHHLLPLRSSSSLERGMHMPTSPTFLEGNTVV

## C#CCn1cc(/C=N/NC(=O)c2cc3ccccc3o2)c2ccccc21
[1]
  EC50: 0.544 µM (active)
Fibrinogen beta chain [2]
  IC50: > 83.3 µM (inactive)
Fibrinogen beta chain [3]
  IC50: > 83.3 µM (inactive)

## O=C(NCCN1CCC2(CC1)C(=O)NCN2C(=O)C1CCC1)c1ccc2ccccc2c1
Phospholipase D2
  IC50: 0.32 µM (active)
Phospholipase D1
  IC50: 4 µM (active)

## N=c1ccn(CC(=O)NC(N)=O)c2ccccc12
Transthyretin
  EC50: > 167 µM (inactive)

## O=c1[nH]c(SCc2ccc(F)cc2)nc2c1cnn2-c1ccc(F)cc1
[4]
  IC50: > 50 µM (not active)

## COC(=O)C1=C(C)NC(=O)/C1=C\c1cc(C)n(-c2cccc(C)c2)c1C
[5]
  CC50: 16 µM (active)
[6]
  IC50: > 100 µM (active)
[7]
  CC50: > 40 µM (active)

## Cc1ccc(-n2c(C)nc3oc4ccccc4c(=O)c3c2=O)cc1
Ephrin type-A receptor 4
  IC50: > 100 µM (not active)
[8]
  IC50: 1.13 µM (active)
[9]
  IC50: 14.4 µM (active)
[10]
  IC50: 0.779 µM (active)
[11]
  IC50: 14 µM (active)

## CCCCCC(=O)N1C[C@@H](n2cc(C3CC3)nn2)[C@H](O)C[C@@H]1c1ccc(C)cc1
[12]
  CC50: > 40 µM (active)

## CC(C)CC1NC(=S)N(Cc2ccccc2)C1=O (stereo not drawn)
Paired box protein Pax-8
  AC50: 6.46 µM (active)
[13]
  AC50: 29.2 µM (active)
[14]
  AC50: 33.9 µM (active)
[15]
  AC50: 94 µM (active)
[16]
  AC50: 43 µM (active)
[17]
  AC50: 15.9 µM (active)
[18]
  AC50: 18.8 µM (active)
[19]
  AC50: 21.4 µM (active)
[20]
  AC50: 46.8 µM (active)

## Cc1noc(C)c1NC(=O)Nc1ccc2c(c1)C(=O)N([C@@H](C)CN(C)C)C[C@@H](C)[C@H](CN(C)S(=O)(=O)c1ccc(F)cc1)OCCCC[C@H](C)O2
[21]
  AC50: 0.0289 µM (active)

## COc1cccc(CNCCc2c[nH]c3ccccc23)c1OCc1ccccc1
[22]
  AC50: 14.4 µM (active)
A-375
  AC50: 36.2 µM (active)
[23]
  AC50: 4.09 µM (active)
[24]
  AC50: 11.8 µM (active)
[25]
  AC50: 9.39 µM (active)
[26]
  CC50: > 40 µM (active)

## CC(C)CCNC(=O)c1c(N)n(Cc2ccc3c(c2)OCO3)c2nc3ccccc3nc12
[27]
  EC50: 1.69 µM (active)
